Experiment [1] addresses STE20-like serine/threonine-protein kinase (Homo sapiens, UniProt Q9H2G2).
Experiment [2] concerns the target Adenylate kinase 2, mitochondrial (Homo sapiens, UniProt P54819).
For experiment [3], the target named is T1, Mitogen-activated protein kinase kinase kinase kinase 2 (Homo sapiens, UniProt Q12851).
T1 sequence (Q12851 whole entry): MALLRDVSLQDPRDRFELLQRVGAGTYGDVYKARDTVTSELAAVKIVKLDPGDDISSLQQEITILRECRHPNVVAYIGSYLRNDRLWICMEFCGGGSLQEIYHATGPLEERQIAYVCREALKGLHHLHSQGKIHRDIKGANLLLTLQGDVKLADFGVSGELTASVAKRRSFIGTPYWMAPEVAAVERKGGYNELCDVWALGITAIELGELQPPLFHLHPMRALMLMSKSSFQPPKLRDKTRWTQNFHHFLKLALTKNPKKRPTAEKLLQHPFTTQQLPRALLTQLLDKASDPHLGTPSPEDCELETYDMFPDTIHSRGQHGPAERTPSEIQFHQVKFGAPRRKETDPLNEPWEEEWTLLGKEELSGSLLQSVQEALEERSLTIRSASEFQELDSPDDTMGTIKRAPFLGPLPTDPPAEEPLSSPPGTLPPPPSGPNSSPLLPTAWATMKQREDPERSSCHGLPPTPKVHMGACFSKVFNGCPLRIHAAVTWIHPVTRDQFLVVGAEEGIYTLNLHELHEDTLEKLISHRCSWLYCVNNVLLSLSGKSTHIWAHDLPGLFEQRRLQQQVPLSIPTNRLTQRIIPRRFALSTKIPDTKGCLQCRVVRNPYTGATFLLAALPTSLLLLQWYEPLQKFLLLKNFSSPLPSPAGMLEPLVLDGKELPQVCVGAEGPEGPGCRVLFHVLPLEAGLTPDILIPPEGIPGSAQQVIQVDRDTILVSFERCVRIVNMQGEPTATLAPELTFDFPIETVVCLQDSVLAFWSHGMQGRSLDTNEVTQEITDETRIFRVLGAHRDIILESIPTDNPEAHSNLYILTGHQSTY

The target of another experiment is T2, TGF-beta receptor type-1 (Homo sapiens, UniProt P36897).
T2 sequence (P36897 whole entry): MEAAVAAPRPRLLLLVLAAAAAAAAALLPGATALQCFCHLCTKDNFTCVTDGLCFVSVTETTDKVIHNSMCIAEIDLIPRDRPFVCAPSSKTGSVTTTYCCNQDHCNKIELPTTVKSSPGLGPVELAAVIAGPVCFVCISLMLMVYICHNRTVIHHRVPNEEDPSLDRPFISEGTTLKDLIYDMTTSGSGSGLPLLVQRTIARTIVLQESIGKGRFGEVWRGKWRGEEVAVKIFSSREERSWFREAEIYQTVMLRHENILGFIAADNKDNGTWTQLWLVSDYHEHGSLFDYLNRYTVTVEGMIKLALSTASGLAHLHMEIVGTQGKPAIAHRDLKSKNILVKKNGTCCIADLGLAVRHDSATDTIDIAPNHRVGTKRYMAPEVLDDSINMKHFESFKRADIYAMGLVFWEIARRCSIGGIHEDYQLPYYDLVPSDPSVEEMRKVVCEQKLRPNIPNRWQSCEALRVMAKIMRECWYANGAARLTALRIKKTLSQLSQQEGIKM

The target of experiment [4] is Bone morphogenetic protein receptor type-1A (Homo sapiens, UniProt P36894).
The target in the next experiment is T3, Glycine--tRNA ligase (Homo sapiens, UniProt P41250).
T3 sequence (P41250 whole entry): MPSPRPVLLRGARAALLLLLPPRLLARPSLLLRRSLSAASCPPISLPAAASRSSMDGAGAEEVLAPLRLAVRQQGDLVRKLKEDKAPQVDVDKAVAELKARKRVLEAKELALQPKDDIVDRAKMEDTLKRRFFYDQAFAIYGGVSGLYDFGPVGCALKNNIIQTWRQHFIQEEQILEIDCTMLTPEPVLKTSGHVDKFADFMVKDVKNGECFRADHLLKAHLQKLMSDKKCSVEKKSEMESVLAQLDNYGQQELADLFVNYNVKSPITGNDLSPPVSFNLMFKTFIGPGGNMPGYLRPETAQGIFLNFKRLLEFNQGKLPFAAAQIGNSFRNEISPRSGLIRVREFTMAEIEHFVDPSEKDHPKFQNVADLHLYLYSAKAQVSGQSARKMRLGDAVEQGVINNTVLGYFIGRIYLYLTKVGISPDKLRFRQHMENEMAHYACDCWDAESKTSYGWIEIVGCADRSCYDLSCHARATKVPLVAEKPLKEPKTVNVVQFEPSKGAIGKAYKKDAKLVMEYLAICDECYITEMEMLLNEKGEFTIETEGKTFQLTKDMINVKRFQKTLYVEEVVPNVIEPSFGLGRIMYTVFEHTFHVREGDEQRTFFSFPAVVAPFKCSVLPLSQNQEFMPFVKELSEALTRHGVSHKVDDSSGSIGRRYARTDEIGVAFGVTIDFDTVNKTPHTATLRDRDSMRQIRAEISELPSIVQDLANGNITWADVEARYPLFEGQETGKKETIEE

Experiment [5] addresses T4, Interleukin-1 receptor-associated kinase 4 (Homo sapiens, UniProt Q9NWZ3).
T4 sequence (Q9NWZ3 whole entry): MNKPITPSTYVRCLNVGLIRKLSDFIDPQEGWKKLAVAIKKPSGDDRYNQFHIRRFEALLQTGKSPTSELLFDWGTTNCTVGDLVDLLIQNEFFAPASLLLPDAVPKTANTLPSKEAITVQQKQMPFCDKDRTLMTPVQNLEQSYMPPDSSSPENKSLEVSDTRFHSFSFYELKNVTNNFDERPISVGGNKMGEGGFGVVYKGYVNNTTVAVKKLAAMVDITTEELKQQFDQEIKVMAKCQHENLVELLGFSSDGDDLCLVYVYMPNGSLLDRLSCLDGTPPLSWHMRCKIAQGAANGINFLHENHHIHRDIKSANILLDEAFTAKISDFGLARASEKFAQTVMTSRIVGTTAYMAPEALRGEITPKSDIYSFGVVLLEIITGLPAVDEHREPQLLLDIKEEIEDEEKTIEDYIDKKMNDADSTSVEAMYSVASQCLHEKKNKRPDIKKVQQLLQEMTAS

Calls of active or inactive are those of the source. For most assays here, no stated cut-off is given here; in the data, actives have a measured Kd and inactives only a lower limit.

Sequence of Bone morphogenetic protein receptor type-1A (P36894 whole entry): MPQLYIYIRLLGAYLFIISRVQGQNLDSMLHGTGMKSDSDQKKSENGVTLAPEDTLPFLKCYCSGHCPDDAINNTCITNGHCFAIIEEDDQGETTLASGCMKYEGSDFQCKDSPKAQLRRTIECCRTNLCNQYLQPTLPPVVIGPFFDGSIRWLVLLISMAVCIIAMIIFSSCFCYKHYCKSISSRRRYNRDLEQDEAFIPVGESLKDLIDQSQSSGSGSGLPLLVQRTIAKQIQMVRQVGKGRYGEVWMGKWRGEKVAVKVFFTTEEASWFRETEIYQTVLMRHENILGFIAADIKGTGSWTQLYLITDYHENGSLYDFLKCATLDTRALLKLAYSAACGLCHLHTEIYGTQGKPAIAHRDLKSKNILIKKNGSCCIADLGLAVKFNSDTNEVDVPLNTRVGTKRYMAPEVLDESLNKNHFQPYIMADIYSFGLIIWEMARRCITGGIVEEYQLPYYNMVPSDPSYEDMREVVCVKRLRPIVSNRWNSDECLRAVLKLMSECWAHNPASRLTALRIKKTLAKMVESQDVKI
Sequence of STE20-like serine/threonine-protein kinase (Q9H2G2 whole entry): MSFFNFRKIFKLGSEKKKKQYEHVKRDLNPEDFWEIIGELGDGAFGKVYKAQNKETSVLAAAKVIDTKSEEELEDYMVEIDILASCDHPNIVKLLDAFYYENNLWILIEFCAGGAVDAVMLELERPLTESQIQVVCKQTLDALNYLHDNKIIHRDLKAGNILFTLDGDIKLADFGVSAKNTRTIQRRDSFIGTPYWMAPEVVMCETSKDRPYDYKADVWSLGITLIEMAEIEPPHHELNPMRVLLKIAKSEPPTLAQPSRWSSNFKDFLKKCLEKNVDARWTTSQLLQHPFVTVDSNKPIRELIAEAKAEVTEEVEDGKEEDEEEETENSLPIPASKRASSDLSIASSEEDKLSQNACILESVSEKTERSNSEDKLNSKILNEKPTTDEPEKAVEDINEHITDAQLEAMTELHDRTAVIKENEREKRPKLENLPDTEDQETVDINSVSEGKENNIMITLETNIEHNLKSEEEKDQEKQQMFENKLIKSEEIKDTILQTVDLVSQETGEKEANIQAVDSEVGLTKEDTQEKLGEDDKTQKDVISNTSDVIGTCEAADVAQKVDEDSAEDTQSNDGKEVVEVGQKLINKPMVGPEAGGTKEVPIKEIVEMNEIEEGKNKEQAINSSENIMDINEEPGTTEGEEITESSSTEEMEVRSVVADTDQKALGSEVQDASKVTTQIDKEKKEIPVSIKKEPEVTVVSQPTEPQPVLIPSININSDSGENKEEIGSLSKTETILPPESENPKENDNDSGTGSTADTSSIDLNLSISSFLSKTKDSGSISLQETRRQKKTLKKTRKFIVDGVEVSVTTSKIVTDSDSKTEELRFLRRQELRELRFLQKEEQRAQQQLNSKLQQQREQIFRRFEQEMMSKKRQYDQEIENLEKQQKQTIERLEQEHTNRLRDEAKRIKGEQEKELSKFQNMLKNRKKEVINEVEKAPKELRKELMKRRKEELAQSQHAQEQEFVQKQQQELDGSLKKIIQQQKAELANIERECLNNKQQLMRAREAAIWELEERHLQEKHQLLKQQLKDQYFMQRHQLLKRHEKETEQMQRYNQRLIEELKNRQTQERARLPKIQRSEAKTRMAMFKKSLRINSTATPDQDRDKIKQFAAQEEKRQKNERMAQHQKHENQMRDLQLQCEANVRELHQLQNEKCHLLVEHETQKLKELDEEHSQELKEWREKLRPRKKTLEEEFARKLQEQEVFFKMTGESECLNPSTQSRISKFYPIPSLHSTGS

For orientation: Kd means the free concentration of one partner at which half of the binding sites on the other are occupied at equilibrium, for simple one-to-one binding. As for `C1=C/COCc2cc(ccc2OCCN2CCCC2)Nc2nccc(n2)-c2cccc(c2)COC/1` [PACRITINIB], the Kd in experiment [1] is > 30 µM (inactive); in experiment [2], > 30 µM (inactive); in experiment [3], 3.72 µM (active); on TGF-beta receptor type-1, > 30 µM (inactive); in experiment [4], > 30 µM (inactive); on Glycine--tRNA ligase, > 30 µM (inactive). The Kd in experiment [5] is > 30 µM (inactive).
In the case of `Cc1ccc(S(=O)(=O)Nc2nc3ccccc3nc2Nc2ccc3nsnc3c2)cc1`, the Kd (in experiment [1]; in experiment [2]; in experiment [3]; at TGF-beta receptor type-1; in experiment [4]; on Glycine--tRNA ligase) was > 30 µM (inactive) each time. In addition, in experiment [5], the Kd was > 30 µM (inactive).
Take `Cn1cc(-c2ccc(F)c(C(F)(F)F)c2)nc1C1CCN(c2ncnc3[nH]ncc23)CC1` [LY-2584702]: the Kd (in experiment [1]; in experiment [2]; in experiment [3]; at TGF-beta receptor type-1; in experiment [4]; on Glycine--tRNA ligase) was > 30 µM (inactive) each time. Besides, the Kd in experiment [5] is > 30 µM (inactive).
Regarding `CN(C)C(=O)c1cc2cnc(Nc3ccc(N4CCNCC4)cn3)nc2n1C1CCCC1` [RIBOCICLIB], the Kd (in experiment [1]; in experiment [2]; in experiment [3]; at TGF-beta receptor type-1; in experiment [4]; on Glycine--tRNA ligase) was > 30 µM (inactive) in each case. The Kd in experiment [5] is > 30 µM (inactive).
In the case of `O=C(Nc1ccc(-c2ccnc(Nc3ccc(N4CCOCC4)cc3)n2)cc1)C1CCCN1` (centres undefined) [XL-019], the Kd (in experiment [1]; in experiment [2]; in experiment [3]; on TGF-beta receptor type-1; in experiment [4]; at Glycine--tRNA ligase) was > 30 µM (inactive) throughout. Further, in experiment [5], the Kd was > 30 µM (inactive).
On to `CNC(=O)CN1CCC(Oc2cc3c(Nc4cccc(Cl)c4F)ncnc3cc2OC)CC1` [SAPITINIB], for which the Kd (in experiment [1]; in experiment [2]; in experiment [3]; on TGF-beta receptor type-1; in experiment [4]; on Glycine--tRNA ligase) was > 30 µM (inactive) throughout. Moreover, the Kd in experiment [5] is > 30 µM (inactive).
As for `Cc1cc([C@@H](C)Nc2ccccc2C(=O)O)c2nc(N3CCOCC3)cc(=O)n2c1` [AZD-6482], the Kd (in experiment [1]; in experiment [2]; in experiment [3]; on TGF-beta receptor type-1; in experiment [4]; at Glycine--tRNA ligase) was > 30 µM (inactive) throughout. Besides, in experiment [5], the Kd was > 30 µM (inactive).
With `CCN1CCN(Cc2ccc(-c3cc4c(N[C@H](C)c5ccccc5)ncnc4[nH]3)cc2)CC1` [AEE-788], the Kd in experiment [1] is 99.2 µM (active); in experiment [2], > 30 µM (inactive); in experiment [3], 3.53 µM (active); at TGF-beta receptor type-1, > 30 µM (inactive); in experiment [4], > 30 µM (inactive); at Glycine--tRNA ligase, > 30 µM (inactive). The Kd in experiment [5] was > 30 µM (inactive).
For `CN1N=C(N)c2cn([C@@H]3O[C@H](COP(=O)(O)O)[C@@H](O)[C@H]3O)c3ncnc1c23` [TRICIRIBINE PHOSPHATE], the Kd (in experiment [1]; in experiment [2]; in experiment [3]; at TGF-beta receptor type-1; in experiment [4]; on Glycine--tRNA ligase) was > 30 µM (inactive) each time. The Kd in experiment [5] is > 30 µM (inactive).
Take `CC(=O)Nc1cccc(-n2c(=O)n(C3CC3)c(=O)c3c(Nc4ccc(I)cc4F)n(C)c(=O)c(C)c32)c1` [TRAMETINIB]: the Kd (in experiment [1]; in experiment [2]; in experiment [3]; on TGF-beta receptor type-1; in experiment [4]; at Glycine--tRNA ligase) was > 30 µM (inactive) each time. The Kd in experiment [5] is > 30 µM (inactive).
Take `COCCNCc1ccc(-c2cc3nccc(Oc4ccc(NC(=S)NC(=O)Cc5ccc(F)cc5)cc4F)c3s2)nc1` [GLESATINIB]: the Kd (in experiment [1]; in experiment [2]; in experiment [3]; at TGF-beta receptor type-1; in experiment [4]; on Glycine--tRNA ligase) was > 30 µM (inactive) in each case. In experiment [5], the Kd is > 30 µM (inactive).
On to `CNS(=O)(=O)Nc1nccc(Cc2c(C)c3ccc(Oc4ncccn4)cc3oc2=O)c1F` [AVUTOMETINIB], for which the Kd (in experiment [1]; in experiment [2]; in experiment [3]; on TGF-beta receptor type-1; in experiment [4]; at Glycine--tRNA ligase) was > 30 µM (inactive) each time. In addition, the Kd in experiment [5] was > 30 µM (inactive).
